The numbers were not newly measured in patent publication US7666888B2, “Substituted azole aromatic heterocycles as inhibitors of 11β-HSD-1” (Amgen Inc., priority 2006, dated 2010), which cites them from elsewhere.

The subject of one data set is normal subjects. As to conditions: ingestion.
A further data set has as its system bone nodule formation. As to conditions: glucocorticoid effect.

With `CC1(C)[C@@H](OC(=O)CCC(=O)O)CC[C@]2(C)[C@H]3C(=O)C=C4[C@@H]5C[C@@](C)(C(=O)O)CC[C@]5(C)CC[C@@]4(C)[C@]3(C)CC[C@@H]12` [carbenoxolone], the Hepatic insulin sensitivity result in the data set on healthy human volunteers is recorded as “improved”. Moreover, the “reduce the intraocular pressure” value in the data set with normal subjects is 20%. Further, in the data set with bone nodule formation, the “negative effect on bone nodule formation” value was “blocked”.
